{"source": "patent US20210254056A1", "about": "“IDENTIFICATION AND TARGETED MODULATION OF GENE SIGNALING NETWORKS” (CAMP4 THERAPEUTICS CORPORATION, priority 2017, published 2021)", "test_system": "hepatocytes", "assay": "RNA-seq of hepatocytes treated with Phase III failure compounds", "description": "RNA-seq was performed to determine the effects of the compounds on hepatocytes.\nSignificance was determined by the criteria of FPKM≥0.5, a log 2(fold-change)≥1, and a […].", "data": [{"smiles": "NC(=O)c1ccc(I)c([N+](=O)[O-])c1", "note": "[BSI-201]", "values": [{"measurement": "RNA-seq results, CYP2B6 expression", "result": 0.07}, {"measurement": "RNA-seq results, CYP2C19 expression", "result": 0.30}, {"measurement": "RNA-seq results, CYP2D6 expression", "result": "−0.15"}, {"measurement": "RNA-seq results, CYP3A4 expression", "result": "−0.46"}, {"measurement": "RNA-seq results, CYP7B1 expression", "result": 0.03}, {"measurement": "RNA-seq results, CYP39A1 expression", "result": "−0.20"}, {"measurement": "RNA-seq results: CYP2B6 expression", "result": 0.48}, {"measurement": "RNA-seq results: CYP2C19 expression", "result": 0.24}, {"measurement": "RNA-seq results: CYP2D6 expression", "result": 0.11}, {"measurement": "RNA-seq results: CYP3A4 expression", "result": 3.12}, {"measurement": "RNA-seq results: CYP7B1 expression", "result": 0.05}, {"measurement": "RNA-seq results: CYP39A1 expression", "result": 0.43}, {"measurement": "significant modulation of expression of disease genes", "setting": "RNA-seq, q≤0.05, hepatocytes, genes in the value or listed in the block", "result": "significantly (q≤0.05) modulate expression of RMRP"}, {"measurement": "RNA-seq results: A1BG expression", "setting": "gene A1BG, hepatocytes", "result": "−0.21"}, {"measurement": "RNA-seq results: AGTR1 expression", "setting": "gene AGTR1, hepatocytes", "result": "−0.22"}, {"measurement": "RNA-seq results: AGXT expression", "setting": "gene AGXT, hepatocytes", "result": "−0.06"}, {"measurement": "RNA-seq results: AHI1 expression", "setting": "gene AHI1, hepatocytes", "result": 0.33}, {"measurement": "RNA-seq results: AMPD3 expression", "setting": "gene AMPD3, hepatocytes", "result": 0.19}, {"measurement": "RNA-seq results: AMT expression", "setting": "gene AMT, hepatocytes", "result": "−0.04"}, {"measurement": "RNA-seq results: ANGPTL3 expression", "setting": "gene ANGPTL3, hepatocytes", "result": "−0.14"}, {"measurement": "RNA-seq results: ANKS4B expression", "setting": "gene ANKS4B, hepatocytes", "result": "−0.24"}, {"measurement": "RNA-seq results: ANKS6 expression", "setting": "gene ANKS6, hepatocytes", "result": 0.04}, {"measurement": "RNA-seq results: ANPEP expression", "setting": "gene ANPEP, hepatocytes", "result": "−0.09"}, {"measurement": "RNA-seq results: AOC2 expression", "setting": "gene AOC2, hepatocytes", "result": 0.36}, {"measurement": "RNA-seq results: APOA2 expression", "setting": "gene APOA2, hepatocytes", "result": "−0.52"}, {"measurement": "RNA-seq results: APOA5 expression", "setting": "gene APOA5, hepatocytes", "result": "−0.17"}, {"measurement": "RNA-seq results: APOB expression", "setting": "gene APOB, hepatocytes", "result": 0.03}, {"measurement": "RNA-seq results: COG5 expression", "setting": "gene COG5, hepatocytes", "result": "−0.06"}, {"measurement": "RNA-seq results: COG6 expression", "setting": "gene COG6, hepatocytes", "result": "−0.01"}, {"measurement": "RNA-seq results: COL1A1 expression", "setting": "gene COL1A1, hepatocytes", "result": "−0.34"}, {"measurement": "RNA-seq results: COX6A1 expression", "setting": "gene COX6A1, hepatocytes", "result": "−0.13"}, {"measurement": "RNA-seq results: CP expression", "setting": "gene CP, hepatocytes", "result": 0.11}, {"measurement": "RNA-seq results: CPS1 expression", "setting": "gene CPS1, hepatocytes", "result": 0.09}, {"measurement": "RNA-seq results: CPT1A expression", "setting": "gene CPT1A, hepatocytes", "result": "−0.18"}, {"measurement": "RNA-seq results: CPT2 expression", "setting": "gene CPT2, hepatocytes", "result": 0.10}, {"measurement": "RNA-seq results: CROT expression", "setting": "gene CROT, hepatocytes", "result": "−0.04"}, {"measurement": "RNA-seq results: CSPP1 expression", "setting": "gene CSPP1, hepatocytes", "result": "−0.07"}, {"measurement": "RNA-seq results: CTC1 expression", "setting": "gene CTC1, hepatocytes", "result": "−0.08"}, {"measurement": "RNA-seq results: CTDSP2 expression", "setting": "gene CTDSP2, hepatocytes", "result": 0.10}, {"measurement": "RNA-seq results: CTH expression", "setting": "gene CTH, hepatocytes", "result": 0.23}, {"measurement": "RNA-seq results: CTNS expression", "setting": "gene CTNS, hepatocytes", "result": 0.08}, {"measurement": "RNA-seq results: CTSF expression", "setting": "gene CTSF, hepatocytes", "result": 0.10}, {"measurement": "RNA-seq results: CTSK expression", "setting": "gene CTSK, hepatocytes", "result": "−0.15"}, {"measurement": "RNA-seq results: CYB5A expression", "setting": "gene CYB5A, hepatocytes", "result": 0.73}, {"measurement": "RNA-seq results: CYB5R3 expression", "setting": "gene CYB5R3, hepatocytes", "result": 0.04}, {"measurement": "RNA-seq results: CYP27A1 expression", "setting": "gene CYP27A1, hepatocytes", "result": 0.04}, {"measurement": "RNA-seq results: DAO expression", "setting": "gene DAO, hepatocytes", "result": "−0.04"}, {"measurement": "RNA-seq results: DBT expression", "setting": "gene DBT, hepatocytes", "result": 0.04}, {"measurement": "RNA-seq results: DCDC2 expression", "setting": "gene DCDC2, hepatocytes", "result": 0.01}, {"measurement": "RNA-seq results: DCXR expression", "setting": "gene DCXR, hepatocytes", "result": "−0.01"}, {"measurement": "RNA-seq results: FABP1 expression", "setting": "gene FABP1, hepatocytes", "result": "−0.25"}, {"measurement": "RNA-seq results: FADD expression", "setting": "gene FADD, hepatocytes", "result": "−0.08"}, {"measurement": "RNA-seq results: FAM111A expression", "setting": "gene FAM111A, hepatocytes", "result": 0.07}, {"measurement": "RNA-seq results: FAM111B expression", "setting": "gene FAM111B, hepatocytes", "result": 0.03}, {"measurement": "RNA-seq results: FAN1 expression", "setting": "gene FAN1, hepatocytes", "result": 0.05}, {"measurement": "RNA-seq results: FARS2 expression", "setting": "gene FARS2, hepatocytes", "result": "−0.14"}, {"measurement": "RNA-seq results: FASLG expression", "setting": "gene FASLG, hepatocytes", "result": "−0.21"}, {"measurement": "RNA-seq results: FGA expression", "setting": "gene FGA, hepatocytes", "result": 0.16}, {"measurement": "RNA-seq results: FGD1 expression", "setting": "gene FGD1, hepatocytes", "result": "−0.07"}, {"measurement": "RNA-seq results: FGFR2 expression", "setting": "gene FGFR2, hepatocytes", "result": 0.07}, {"measurement": "RNA-seq results: FIG4 expression", "setting": "gene FIG4, hepatocytes", "result": "−0.12"}, {"measurement": "RNA-seq results: FIS1 expression", "setting": "gene FIS1, hepatocytes", "result": "−0.06"}, {"measurement": "RNA-seq results: FTCD expression", "setting": "gene FTCD, hepatocytes", "result": 0.31}, {"measurement": "RNA-seq results: FTH1 expression", "setting": "gene FTH1, hepatocytes", "result": 0.06}, {"measurement": "RNA-seq results: FUCA1 expression", "setting": "gene FUCA1, hepatocytes", "result": "−0.11"}, {"measurement": "RNA-seq results: FXN expression", "setting": "gene FXN, hepatocytes", "result": 0.23}, {"measurement": "RNA-seq results: G6PC3 expression", "setting": "gene G6PC3, hepatocytes", "result": 0.02}, {"measurement": "RNA-seq results: G6PC expression", "setting": "gene G6PC, hepatocytes", "result": 0.12}, {"measurement": "RNA-seq results: G6PD expression", "setting": "gene G6PD, hepatocytes", "result": 0.13}, {"measurement": "RNA-seq results: GALK1 expression", "setting": "gene GALK1, hepatocytes", "result": "−0.03"}, {"measurement": "RNA-seq results: GALK2 expression", "setting": "gene GALK2, hepatocytes", "result": 0.00}, {"measurement": "RNA-seq results: GALT expression", "setting": "gene GALT, hepatocytes", "result": 0.01}, {"measurement": "RNA-seq results: GATA6 expression", "setting": "gene GATA6, hepatocytes", "result": "−0.07"}, {"measurement": "RNA-seq results: GATM expression", "setting": "gene GATM, hepatocytes", "result": "−0.15"}, {"measurement": "RNA-seq results: GBA expression", "setting": "gene GBA, hepatocytes", "result": 0.02}, {"measurement": "RNA-seq results: GBE1 expression", "setting": "gene GBE1, hepatocytes", "result": "−0.15"}, {"measurement": "RNA-seq results: GCH1 expression", "setting": "gene GCH1, hepatocytes", "result": "−0.06"}, {"measurement": "RNA-seq results: GCKR expression", "setting": "gene GCKR, hepatocytes", "result": 0.23}, {"measurement": "RNA-seq results: GCLC expression", "setting": "gene GCLC, hepatocytes", "result": "−0.04"}, {"measurement": "RNA-seq results: GOSH expression", "setting": "gene GOSH, hepatocytes", "result": 0.46}, {"measurement": "RNA-seq results: RRM2B", "setting": "gene RRM2B, hepatocytes", "result": "−0.28"}, {"measurement": "RNA-seq results: RSAD1", "setting": "gene RSAD1, hepatocytes", "result": "−0.02"}, {"measurement": "RNA-seq results: SAMHD1", "setting": "gene SAMHD1, hepatocytes", "result": "−0.24"}, {"measurement": "RNA-seq results: SC5D", "setting": "gene SC5D, hepatocytes", "result": "−0.29"}, {"measurement": "RNA-seq results: SCARB1", "setting": "gene SCARB1, hepatocytes", "result": "−0.03"}, {"measurement": "RNA-seq results: SCN9A", "setting": "gene SCN9A, hepatocytes", "result": 0.10}, {"measurement": "RNA-seq results: SDCCAG8", "setting": "gene SDCCAG8, hepatocytes", "result": "−0.06"}, {"measurement": "RNA-seq results: SEPN1", "setting": "gene SEPN1, hepatocytes", "result": "−0.11"}, {"measurement": "RNA-seq results: SERAC1", "setting": "gene SERAC1, hepatocytes", "result": "−0.22"}, {"measurement": "RNA-seq results: SERPINA1", "setting": "gene SERPINA1, hepatocytes", "result": "−0.17"}, {"measurement": "RNA-seq results: SERPING1", "setting": "gene SERPING1, hepatocytes", "result": "−0.16"}, {"measurement": "RNA-seq results: SERPINI1", "setting": "gene SERPINI1, hepatocytes", "result": "−0.41"}, {"measurement": "RNA-seq results: SETBP1", "setting": "gene SETBP1, hepatocytes", "result": 0.06}, {"measurement": "RNA-seq results: SFXN4", "setting": "gene SFXN4, hepatocytes", "result": "−0.19"}, {"measurement": "RNA-seq results: SLC10A1", "setting": "gene SLC10A1, hepatocytes", "result": "−0.31"}, {"measurement": "RNA-seq results: SLC10A3", "setting": "gene SLC10A3, hepatocytes", "result": 0.33}, {"measurement": "RNA-seq results: SLC10A5", "setting": "gene SLC10A5, hepatocytes", "result": 0.19}, {"measurement": "RNA-seq results: SLC10A7", "setting": "gene SLC10A7, hepatocytes", "result": "−0.38"}, {"measurement": "RNA-seq results: SLC11A2", "setting": "gene SLC11A2, hepatocytes", "result": "−0.02"}, {"measurement": "RNA-seq results: SLC19A1", "setting": "gene SLC19A1, hepatocytes", "result": 0.05}, {"measurement": "RNA-seq results: SLC19A2", "setting": "gene SLC19A2, hepatocytes", "result": 0.00}, {"measurement": "RNA-seq results: SLC19A3", "setting": "gene SLC19A3, hepatocytes", "result": "−0.03"}, {"measurement": "RNA-seq results: SLC22A1", "setting": "gene SLC22A1, hepatocytes", "result": "−0.32"}, {"measurement": "RNA-seq results: SLC22A5", "setting": "gene SLC22A5, hepatocytes", "result": 0.05}, {"measurement": "RNA-seq results: SLC25A1", "setting": "gene SLC25A1, hepatocytes", "result": 0.08}, {"measurement": "RNA-seq results: SLC25A10", "setting": "gene SLC25A10, hepatocytes", "result": "−0.16"}, {"measurement": "RNA-seq results: SLC25A12", "setting": "gene SLC25A12, hepatocytes", "result": 0.23}, {"measurement": "RNA-seq results: SLC25A13", "setting": "gene SLC25A13, hepatocytes", "result": "−0.13"}, {"measurement": "RNA-seq results: SLC25A15", "setting": "gene SLC25A15, hepatocytes", "result": 0.02}, {"measurement": "RNA-seq results: SLC25A19", "setting": "gene SLC25A19, hepatocytes", "result": "−0.15"}, {"measurement": "RNA-seq results: SLC25A20", "setting": "gene SLC25A20, hepatocytes", "result": "−0.16"}, {"measurement": "RNA-seq results: SLC25A29", "setting": "gene SLC25A29, hepatocytes", "result": 0.09}, {"measurement": "RNA-seq results: SLC25A32", "setting": "gene SLC25A32, hepatocytes", "result": "−0.05"}]}]}
